Measurements published in PMC11272598, “RG7774 (Vicasinabin), an orally bioavailable cannabinoid receptor 2 (CB2R) agonist, decreases retinal vascular permeability, leukocyte adhesion, and ocular inflammation in animal models” (Frontiers in Pharmacology, 2024).

Tests used:
Experiment in all cases: CEREP radioligand binding
5-HT1B (h) = 5-HT1B (h) (Homo sapiens, UniProt P28222); details: radioligand [^125I]-CYP (+ 30 μM isoproterenol)
From the text: (§1) Supplement Table1.docx, table 3: Supplementary Table S3. RG7774 binding to non-CB1R/CB2R receptors, ion channels, transporters, and enzymes (CEREP, Celle l’Evescault, France; http://www.cerep.fr). | column: % inhibition of control SB (n = 2)

5-HT2A (h) = 5-HT2A (h) (Homo sapiens, UniProt P28223); details: radioligand [^3H]-ketanserin
From the text: as §1

5-HT5A (h) = 5-HT5A (h) (Homo sapiens, UniProt P47898); details: radioligand [^3H]-LSD
From the text: as §1

5-HT6 (h) = 5-HT6 (h) (Homo sapiens, UniProt P50406); details: radioligand [^3H]-LSD
From the text: as §1

A1 (h) = A1 (h) (Homo sapiens, UniProt P30542); details: radioligand [^3H]-DPCPX
Chain of A1 (h) (P30542 whole entry): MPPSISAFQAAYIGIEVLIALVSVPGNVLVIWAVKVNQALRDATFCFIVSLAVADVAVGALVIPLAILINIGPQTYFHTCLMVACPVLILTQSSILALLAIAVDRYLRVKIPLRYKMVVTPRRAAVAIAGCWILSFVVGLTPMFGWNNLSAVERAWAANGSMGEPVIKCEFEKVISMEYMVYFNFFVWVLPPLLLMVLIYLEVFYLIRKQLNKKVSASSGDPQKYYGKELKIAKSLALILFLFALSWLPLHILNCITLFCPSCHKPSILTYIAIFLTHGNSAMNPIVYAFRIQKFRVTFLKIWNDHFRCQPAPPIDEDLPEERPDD
From the text: as §1

AT1 (h) = AT1 (h) (Homo sapiens, UniProt P30556); details: radioligand [^125I]-[Sar^1,Ile^8]-AT-II
Chain of AT1 (h) (P30556 whole entry): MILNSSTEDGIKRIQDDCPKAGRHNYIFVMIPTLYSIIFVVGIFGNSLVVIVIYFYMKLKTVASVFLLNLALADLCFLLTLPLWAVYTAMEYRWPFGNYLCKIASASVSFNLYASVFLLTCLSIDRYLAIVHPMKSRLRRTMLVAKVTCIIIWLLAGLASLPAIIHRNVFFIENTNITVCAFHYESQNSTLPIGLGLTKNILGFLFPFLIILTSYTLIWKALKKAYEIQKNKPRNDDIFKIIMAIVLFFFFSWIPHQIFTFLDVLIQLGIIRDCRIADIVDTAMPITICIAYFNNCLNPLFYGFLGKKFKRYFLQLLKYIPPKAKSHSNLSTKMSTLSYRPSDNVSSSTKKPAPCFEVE
From the text: as §1

AT2 (h) = AT2 (h) (Homo sapiens, UniProt P50052); details: radioligand [^125I]-CGP 42112A
From the text: as §1

Alpha 1 (non-selective) = details: radioligand [^3H]-prazosin
From the text: as §1

Alpha 2 (non-selective) = details: radioligand [^3H]-RX 821002
From the text: as §1

B2 (h) = B2 (h) (Homo sapiens, UniProt P30411); details: radioligand [^3H]-bradykinin
From the text: as §1

BZD (peripheral) = BZD (peripheral) (Rattus norvegicus, UniProt P16257); details: radioligand [^3H]-PK 11195
From the text: as §1

Beta 1 (h) = Beta 1 (h) (Homo sapiens, UniProt P08588); details: radioligand [^3H](-)CGP 12177
From the text: as §1

CB1 (h) = CB1 (h) (Homo sapiens, UniProt P21554); details: radioligand [^3H]-CP 55940
Chain of CB1 (h) (P21554 whole entry): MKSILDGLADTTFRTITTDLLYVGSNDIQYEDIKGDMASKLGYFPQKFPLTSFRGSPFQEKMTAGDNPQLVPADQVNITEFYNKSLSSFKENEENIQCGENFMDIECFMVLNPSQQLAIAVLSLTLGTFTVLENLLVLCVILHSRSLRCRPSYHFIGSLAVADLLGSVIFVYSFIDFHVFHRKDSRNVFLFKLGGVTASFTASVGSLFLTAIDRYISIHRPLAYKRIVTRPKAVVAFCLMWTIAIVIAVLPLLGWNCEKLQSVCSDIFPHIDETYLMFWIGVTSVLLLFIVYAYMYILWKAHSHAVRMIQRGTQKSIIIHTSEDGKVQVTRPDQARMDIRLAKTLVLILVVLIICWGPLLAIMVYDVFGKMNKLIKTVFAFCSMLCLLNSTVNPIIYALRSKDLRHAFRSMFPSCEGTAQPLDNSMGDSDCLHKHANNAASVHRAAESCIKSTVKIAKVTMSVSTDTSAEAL
From the text: as §1

CCK2 (CCKB) (h) = CCK2 (CCKB) (h) (Homo sapiens, UniProt P32239); details: radioligand [^125I]-CCK-8s
From the text: as §1

CCR1 = CCR1 (Homo sapiens, UniProt P32246); details: radioligand [^125I]-MIP-1α
From the text: as §1

CGRP (h) = CGRP (h) (Homo sapiens, UniProt O60894+Q16602); details: radioligand [^125I]-hCGRPα
Chain of CGRP (h) (Q16602 23-461): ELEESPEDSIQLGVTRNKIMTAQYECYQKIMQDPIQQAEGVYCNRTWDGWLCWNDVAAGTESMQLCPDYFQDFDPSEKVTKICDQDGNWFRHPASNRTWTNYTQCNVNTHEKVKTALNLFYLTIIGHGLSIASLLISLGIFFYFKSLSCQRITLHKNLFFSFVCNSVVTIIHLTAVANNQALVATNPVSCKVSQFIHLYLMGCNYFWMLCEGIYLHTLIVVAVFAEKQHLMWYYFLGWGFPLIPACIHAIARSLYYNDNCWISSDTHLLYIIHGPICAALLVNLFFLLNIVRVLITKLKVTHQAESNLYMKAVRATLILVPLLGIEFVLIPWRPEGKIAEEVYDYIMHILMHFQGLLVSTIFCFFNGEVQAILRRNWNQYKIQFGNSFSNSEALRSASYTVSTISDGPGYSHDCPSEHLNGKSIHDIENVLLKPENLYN
Chain of CGRP (h) (O60894 27-148): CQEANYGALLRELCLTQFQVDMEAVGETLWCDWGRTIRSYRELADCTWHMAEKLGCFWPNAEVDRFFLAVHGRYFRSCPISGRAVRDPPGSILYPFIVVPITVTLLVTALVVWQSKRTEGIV
From the text: as §1

[1] = system: Ca2+ channel (L, verapamil site) (phenylalkylamine); details: radioligand [^3H]-D888
From the text: as §1

Cl- channel (GABA-gated) = details: radioligand [^35S]-TBPS
From the text: as §1

D2S (h) = D2S (h) (Homo sapiens, UniProt P14416); details: radioligand [^3H]-methyl-spiperone
Chain of D2S (h) (P14416 1-414 isoform P14416-2): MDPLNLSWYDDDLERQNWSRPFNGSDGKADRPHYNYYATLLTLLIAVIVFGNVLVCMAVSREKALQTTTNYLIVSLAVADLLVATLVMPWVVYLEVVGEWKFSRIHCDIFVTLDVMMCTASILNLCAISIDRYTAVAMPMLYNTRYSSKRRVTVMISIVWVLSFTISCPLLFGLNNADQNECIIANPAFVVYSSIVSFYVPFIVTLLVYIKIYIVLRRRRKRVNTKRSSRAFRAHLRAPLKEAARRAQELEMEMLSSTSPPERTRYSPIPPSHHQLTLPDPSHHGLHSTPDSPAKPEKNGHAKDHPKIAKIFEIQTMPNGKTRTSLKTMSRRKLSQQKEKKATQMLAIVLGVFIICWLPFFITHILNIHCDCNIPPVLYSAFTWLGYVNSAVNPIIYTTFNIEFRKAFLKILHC
From the text: as §1

D5 = D5 (Homo sapiens, UniProt P21918); details: radioligand [^3H]-SCH 23390
From the text: as §1

EP2 (h) = EP2 (h) (Homo sapiens, UniProt P43116); details: radioligand [^3H]-PGE2
Chain of EP2 (h) (P43116 whole entry): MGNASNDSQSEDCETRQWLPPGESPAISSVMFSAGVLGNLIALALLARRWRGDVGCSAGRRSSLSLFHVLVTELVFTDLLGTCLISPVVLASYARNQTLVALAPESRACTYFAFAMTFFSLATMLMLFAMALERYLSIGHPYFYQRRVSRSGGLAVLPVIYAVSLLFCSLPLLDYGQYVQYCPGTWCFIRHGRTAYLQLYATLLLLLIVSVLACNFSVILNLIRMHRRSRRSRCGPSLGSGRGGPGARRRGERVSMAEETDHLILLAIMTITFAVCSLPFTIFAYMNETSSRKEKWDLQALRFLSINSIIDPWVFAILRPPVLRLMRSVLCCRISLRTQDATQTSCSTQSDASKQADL
From the text: as §1

ETA (h) = ETA (h) (Homo sapiens, UniProt P25101); details: radioligand [^125I]-endothelin-1
From the text: as §1

ETB (h) = ETB (h) (Homo sapiens, UniProt P24530); details: radioligand [^125I]-endothelin-1
From the text: as §1

GAL1 = GAL1 (Homo sapiens, UniProt P47211); details: radioligand [^125I]-galanin
From the text: as §1

GR (h) = GR (h) (Homo sapiens, UniProt P04150); details: radioligand [^3H]-dexamethasone
From the text: as §1

IP (PGI2) (h) = IP (PGI2) (h) (Homo sapiens, UniProt P43119); details: radioligand [^3H]-iloprost
From the text: as §1

KV channel = details: radioligand [^125I]-α-dendrotoxin
From the text: as §1

M4 (h) = M4 (h) (Homo sapiens, UniProt P08173); details: radioligand [^3H]-4-DAMP
From the text: as §1

NK2 (h) = NK2 (h) (Homo sapiens, UniProt P21452); details: radioligand [^125I]-NKA
From the text: as §1

NOP (ORL1) (h) = NOP (ORL1) (h) (Homo sapiens, UniProt P41146); details: radioligand [^3H]-nociceptin
Chain of NOP (ORL1) (h) (P41146 whole entry): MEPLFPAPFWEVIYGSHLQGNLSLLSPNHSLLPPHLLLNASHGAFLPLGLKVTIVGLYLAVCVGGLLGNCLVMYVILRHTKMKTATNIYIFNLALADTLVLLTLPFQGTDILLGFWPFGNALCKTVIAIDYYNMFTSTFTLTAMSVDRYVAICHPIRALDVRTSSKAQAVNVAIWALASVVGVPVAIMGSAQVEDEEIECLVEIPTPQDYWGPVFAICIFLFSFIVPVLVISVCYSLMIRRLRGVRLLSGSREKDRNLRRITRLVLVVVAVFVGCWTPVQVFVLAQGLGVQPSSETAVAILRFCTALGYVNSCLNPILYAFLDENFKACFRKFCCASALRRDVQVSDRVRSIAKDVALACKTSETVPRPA
From the text: as §1

NTS1 (NT1) (h) = NTS1 (NT1) (h) (Homo sapiens, UniProt P30989); details: radioligand [^125I]-Tyr3-neurotensin
From the text: as §1

P2Y = details: radioligand [^35S]-dATPαS
From the text: as §1

PAC1 (PACAP) (h) = PAC1 (PACAP) (h) (Homo sapiens, UniProt P41586); details: radioligand [^125I]-PACAP1-27
Chain of PAC1 (PACAP) (h) (P41586 21-468): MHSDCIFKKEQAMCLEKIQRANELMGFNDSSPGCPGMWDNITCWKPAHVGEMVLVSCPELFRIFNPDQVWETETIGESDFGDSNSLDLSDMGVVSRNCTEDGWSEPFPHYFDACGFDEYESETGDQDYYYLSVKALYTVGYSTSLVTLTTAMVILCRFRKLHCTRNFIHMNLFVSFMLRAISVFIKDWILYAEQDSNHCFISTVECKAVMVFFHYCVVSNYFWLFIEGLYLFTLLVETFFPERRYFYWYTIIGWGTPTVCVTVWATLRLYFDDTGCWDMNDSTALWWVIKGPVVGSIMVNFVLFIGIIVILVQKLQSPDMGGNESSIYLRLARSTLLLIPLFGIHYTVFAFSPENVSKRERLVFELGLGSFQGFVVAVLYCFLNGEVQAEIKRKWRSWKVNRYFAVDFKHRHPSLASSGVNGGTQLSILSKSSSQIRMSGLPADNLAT
From the text: as §1

PDGF = details: radioligand [^125I]-PDGF BB
From the text: as §1

PPARγ (h) = PPARγ (h) (Homo sapiens, UniProt P37231); details: radioligand [^3H]-rosiglitazone
Chain of PPARγ (h) (P37231 whole entry): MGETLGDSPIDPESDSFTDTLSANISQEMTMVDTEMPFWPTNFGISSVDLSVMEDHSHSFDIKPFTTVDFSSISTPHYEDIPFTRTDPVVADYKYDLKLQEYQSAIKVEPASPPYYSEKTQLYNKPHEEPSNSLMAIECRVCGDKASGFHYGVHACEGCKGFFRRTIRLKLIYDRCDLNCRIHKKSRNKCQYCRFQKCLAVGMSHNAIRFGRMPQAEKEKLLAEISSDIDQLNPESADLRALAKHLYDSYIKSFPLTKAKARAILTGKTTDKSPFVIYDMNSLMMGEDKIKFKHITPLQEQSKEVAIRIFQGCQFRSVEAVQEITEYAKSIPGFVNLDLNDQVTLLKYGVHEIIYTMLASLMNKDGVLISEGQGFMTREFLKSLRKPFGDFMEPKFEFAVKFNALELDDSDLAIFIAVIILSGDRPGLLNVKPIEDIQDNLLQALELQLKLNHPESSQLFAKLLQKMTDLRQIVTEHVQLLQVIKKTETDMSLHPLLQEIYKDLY
From the text: as §1

sst (non-selective) = details: radioligand [^125I]-Tyr^11-somatostatin-14
From the text: as §1

μ(MOP) (h) = μ(MOP) (h) (Homo sapiens, UniProt P35372); details: radioligand [^3H]-DAMGO
Chain of μ(MOP) (h) (P35372 whole entry): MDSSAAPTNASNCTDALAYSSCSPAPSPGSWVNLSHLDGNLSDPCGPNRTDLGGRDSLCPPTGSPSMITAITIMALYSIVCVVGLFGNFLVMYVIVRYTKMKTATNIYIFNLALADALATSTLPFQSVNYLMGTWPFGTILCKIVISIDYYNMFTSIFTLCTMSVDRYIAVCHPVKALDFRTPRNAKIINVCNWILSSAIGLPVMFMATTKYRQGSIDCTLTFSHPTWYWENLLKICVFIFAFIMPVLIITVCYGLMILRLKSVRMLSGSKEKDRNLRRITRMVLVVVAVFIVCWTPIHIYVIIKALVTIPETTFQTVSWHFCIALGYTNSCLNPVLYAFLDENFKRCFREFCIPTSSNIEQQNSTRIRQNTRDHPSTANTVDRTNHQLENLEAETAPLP
From the text: as §1

Chain of 5-HT1B (h) (P28222 whole entry): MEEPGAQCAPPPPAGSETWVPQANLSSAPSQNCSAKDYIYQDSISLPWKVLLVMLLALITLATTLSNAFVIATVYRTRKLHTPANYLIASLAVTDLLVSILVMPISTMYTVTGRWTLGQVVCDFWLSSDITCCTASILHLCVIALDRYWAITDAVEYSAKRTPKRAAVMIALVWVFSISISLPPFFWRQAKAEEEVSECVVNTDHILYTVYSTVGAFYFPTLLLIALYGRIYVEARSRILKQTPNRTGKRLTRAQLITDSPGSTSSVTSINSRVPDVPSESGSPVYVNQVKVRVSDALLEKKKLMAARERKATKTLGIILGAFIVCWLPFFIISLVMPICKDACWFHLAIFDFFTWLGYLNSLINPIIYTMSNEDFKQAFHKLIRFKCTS

Cn1nnnc1Cn1nnc2c(N3CC[C@H](O)C3)nc(C(C)(C)C)nc21 [RG7774, (S)-1-(5-tert-butyl-3-[(1-methyl-1H-tetrazol-5-yl)methyl]-3H-[1,2,3]triazolo[4,5-d]pyrimidin-7-yl)pyrrolidin-3-ol]
% inhibition of control SB (n = 2) (5-HT1B (h)): –10.6%
% inhibition of control SB (n = 2) (5-HT2A (h)): –4.8%
% inhibition of control SB (n = 2) (5-HT5A (h)): 2.2%
% inhibition of control SB (n = 2) (5-HT6 (h)): 3.5%
% inhibition of control SB (n = 2) (A1 (h)): 3.6%
% inhibition of control SB (n = 2) (AT1 (h)): –5.6%
% inhibition of control SB (n = 2) (AT2 (h)): 3.1%
% inhibition of control SB (n = 2) (Alpha 1 (non-selective)): 6.9%
% inhibition of control SB (n = 2) (Alpha 2 (non-selective)): –20.9%
% inhibition of control SB (n = 2) (B2 (h)): –1.6%
% inhibition of control SB (n = 2) (BZD (peripheral)): –12.0%
% inhibition of control SB (n = 2) (Beta 1 (h)): –3.1%
% inhibition of control SB (n = 2) (CB1 (h)): –0.8%
% inhibition of control SB (n = 2) (CCK2 (CCKB) (h)): –7.6%
% inhibition of control SB (n = 2) (CCR1): 5.6%
% inhibition of control SB (n = 2) (CGRP (h)): 1.7%
% inhibition of control SB (n = 2) [1]: 3.0%
% inhibition of control SB (n = 2) (Cl- channel (GABA-gated)): 17.2%
% inhibition of control SB (n = 2) (D2S (h)): 12.0%
% inhibition of control SB (n = 2) (D5): –2.0%
% inhibition of control SB (n = 2) (EP2 (h)): –13.4%
% inhibition of control SB (n = 2) (ETA (h)): –10.4%
% inhibition of control SB (n = 2) (ETB (h)): –8.1%
% inhibition of control SB (n = 2) (GAL1): –9.1%
% inhibition of control SB (n = 2) (GR (h)): 3.0%
% inhibition of control SB (n = 2) (IP (PGI2) (h)): –3.8%
% inhibition of control SB (n = 2) (KV channel): –5.7%
% inhibition of control SB (n = 2) (M4 (h)): –8.9%
% inhibition of control SB (n = 2) (NK2 (h)): –5.5%
% inhibition of control SB (n = 2) (NOP (ORL1) (h)): 2.7%
% inhibition of control SB (n = 2) (NTS1 (NT1) (h)): –4.7%
% inhibition of control SB (n = 2) (P2Y): 2.3%
% inhibition of control SB (n = 2) (PAC1 (PACAP) (h)): –1.3%
% inhibition of control SB (n = 2) (PDGF): –5.6%
% inhibition of control SB (n = 2) (PPARγ (h)): 1.7%
% inhibition of control SB (n = 2) (sst (non-selective)): –22.2%
% inhibition of control SB (n = 2) (μ(MOP) (h)): –2.5%
